Experimental data taken from ChEMBL document CHEMBL1201862, “PubChem BioAssay data set” (2004).
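Compound exposure: 48 hours, 5 concentrations, 96-well plates. GI50: concentration for 50% inhibition of growth.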 Active and inactive are the calls of the source. Cut-off read from the data, not from the text of the source: active = GI50 up to about 1.1 µM and inactive = higher.

Assays:
Assay in all cases: NCI anticancer screen, dose series, 48 h
UACC-257 = tested on: UACC-257
A498 = tested on: A498
OVCAR-4 = tested on: OVCAR-4
EKVX = tested on: EKVX
COLO 205 = tested on: COLO 205
SNB-75 = tested on: SNB-75
Malme-3M = tested on: Malme-3M
NCI-H23 = tested on: NCI-H23
OVCAR-8 = tested on: OVCAR-8
SW-620 = tested on: SW-620
MOLT-4 = tested on: MOLT-4
DU-145 = tested on: DU-145
MCF7 = tested on: MCF7
A549 = tested on: A549
SF-295 = tested on: SF-295
Hs-578T = tested on: Hs-578T
M14 = tested on: M14
HCT-15 = tested on: HCT-15
SK-MEL-2 = tested on: SK-MEL-2

| Structure (SMILES) | GI50 (UACC-257) | GI50 (A498) | GI50 (OVCAR-4) | GI50 (EKVX) | GI50 (COLO 205) | GI50 (SNB-75) | GI50 (Malme-3M) | GI50 (NCI-H23) | GI50 (OVCAR-8) | GI50 (SW-620) | GI50 (MOLT-4) | GI50 (DU-145) | GI50 (MCF7) | GI50 (A549) | GI50 (SF-295) | GI50 (Hs-578T) | GI50 (M14) | GI50 (HCT-15) | GI50 (SK-MEL-2) |
| --- | --- | --- | --- | --- | --- | --- | --- | --- | --- | --- | --- | --- | --- | --- | --- | --- | --- | --- | --- |
| Cc1nc(Nc2ccc(Cl)c(Cl)c2)sc1C(=O)/C=C/c1ccc2c(c1)OCO2 | 31.6 µM (inactive) | 23.3 µM (inactive) | 17.8 µM (inactive) | 34.5 µM (inactive) | 24.7 µM (inactive) | 14.4 µM (inactive) | 31.9 µM (inactive) | 20 µM (inactive) | 23.2 µM (inactive) | 40.5 µM (inactive) | 14.9 µM (inactive) | > 10 µM (inactive) | 25.1 µM (inactive) | 22.3 µM (inactive) | 20 µM (inactive) |  |  |  |  |
| O=C(/C=C/c1ccc(O)c(O)c1O)OCCc1ccccc1 | > 100 µM (inactive) | 74.6 µM (inactive) | 15.9 µM (inactive) | > 100 µM (inactive) | 27.8 µM (inactive) |  | > 100 µM (inactive) | 22.9 µM (inactive) |  | 20.9 µM (inactive) | 23.6 µM (inactive) | > 100 µM (inactive) | 14.5 µM (inactive) | 26.2 µM (inactive) | 19.2 µM (inactive) | > 100 µM (inactive) | 20 µM (inactive) | 23.4 µM | 61.9 µM (inactive) |
| N/N=C1/CCCc2nonc21 | > 100 µM (inactive) |  | > 100 µM (inactive) | > 100 µM (inactive) | > 100 µM (inactive) |  | > 100 µM (inactive) | > 100 µM (inactive) | > 100 µM (inactive) | > 100 µM (inactive) | > 100 µM (inactive) | > 100 µM (inactive) | > 100 µM (inactive) | > 100 µM (inactive) | > 100 µM (inactive) | > 100 µM (inactive) | > 100 µM (inactive) | > 100 µM | > 100 µM (inactive) |
| CC(=O)OCC(OC(C)=O)C(OC(C)=O)C(/C=N\Nc1nc2ccccc2c(=O)[nH]1)OC(C)=O (configuration not stated) | > 100 µM (inactive) | > 100 µM (inactive) |  | > 100 µM (inactive) | > 100 µM (inactive) | > 100 µM (inactive) |  | > 100 µM (inactive) | > 100 µM (inactive) | > 100 µM (inactive) | 86.9 µM (inactive) | > 100 µM (inactive) | > 100 µM (inactive) | > 100 µM (inactive) | > 100 µM (inactive) |  | > 100 µM (inactive) | > 100 µM | > 100 µM (inactive) |
| CCOC(=O)CN1C(=O)C(=O)N(c2ccc(OC)c3ccccc23)C1=O | > 100 µM (inactive) |  | > 100 µM (inactive) | > 100 µM (inactive) | > 100 µM (inactive) | > 100 µM (inactive) | > 100 µM (inactive) | > 100 µM (inactive) | > 100 µM (inactive) | > 100 µM (inactive) | > 100 µM (inactive) | > 100 µM (inactive) | > 100 µM (inactive) | > 100 µM (inactive) | > 100 µM (inactive) |  | > 100 µM (inactive) | > 100 µM | > 100 µM (inactive) |
| Cc1cs/c(=N/c2ccccc2)n1CCC(O)(P(=O)(O)O)P(=O)(O)O | > 100 µM (inactive) |  |  | > 100 µM (inactive) | > 100 µM (inactive) | > 100 µM (inactive) | > 100 µM (inactive) | > 100 µM (inactive) | > 100 µM (inactive) |  |  | > 100 µM (inactive) | > 100 µM (inactive) | > 100 µM (inactive) | > 100 µM (inactive) | > 100 µM (inactive) | > 100 µM (inactive) | 63.1 µM |  |
| O=C1CC[C@@]2(O)[C@H]3Cc4ccc(-c5cccc(O)c5)c5c4[C@@]2(CCN3CC2CC2)[C@H]1O5 | 1.01 µM (active) | 21.3 µM (inactive) | 23.3 µM (inactive) | 11.6 µM (inactive) | 21 µM (inactive) |  |  | 27 µM (inactive) | 19.6 µM (inactive) | > 35.1 µM (inactive) | 22.9 µM (inactive) | 22.6 µM (inactive) | 16.9 µM (inactive) | 9.55 µM (inactive) | 19.8 µM (inactive) |  | 12.1 µM (inactive) | 23.9 µM | 1.51 µM (inactive) |
| C/C(O[Si](C(C)C)(C(C)C)C(C)C)=C(\C)C(=O)N(C)c1ccccc1Cl | > 100 µM (inactive) | > 100 µM (inactive) | > 100 µM (inactive) | > 100 µM (inactive) | > 100 µM (inactive) | 81.5 µM (inactive) | > 100 µM (inactive) | > 100 µM (inactive) | > 100 µM (inactive) | > 100 µM (inactive) | > 100 µM (inactive) | > 100 µM (inactive) |  | > 100 µM (inactive) | > 100 µM (inactive) |  | > 100 µM (inactive) | > 100 µM |  |
| CCOC(=O)C1(N)CCc2[nH][nH]c(=O)c2C1 (configuration not stated) | > 100 µM (inactive) | > 100 µM (inactive) | > 100 µM (inactive) | > 100 µM (inactive) | > 100 µM (inactive) | > 100 µM (inactive) | > 100 µM (inactive) | > 100 µM (inactive) | > 100 µM (inactive) | > 100 µM (inactive) | > 100 µM (inactive) |  | > 100 µM (inactive) | > 100 µM (inactive) | > 100 µM (inactive) | > 100 µM (inactive) | > 100 µM (inactive) | > 100 µM | > 100 µM (inactive) |
| CC(=O)OCC1OC(SC2OC(COC(C)=O)C(OC(C)=O)C(OC(C)=O)C2OC(C)=O)C(OC(C)=O)C(OC(C)=O)C1OC(C)=O (configuration not stated) | > 100 µM (inactive) | 54.1 µM (inactive) | > 100 µM (inactive) | > 100 µM (inactive) | > 100 µM (inactive) | > 100 µM (inactive) | > 100 µM (inactive) | > 100 µM (inactive) | > 100 µM (inactive) | > 100 µM (inactive) | > 100 µM (inactive) | > 100 µM (inactive) | > 100 µM (inactive) | > 100 µM (inactive) | > 100 µM (inactive) |  |  | > 100 µM |  |
| CCOC(=O)[C@@H]1[C@@H](c2ccccc2)N(C)O[C@@]1(c1ccccc1)C(F)(F)F | 55 µM (inactive) | > 100 µM (inactive) | 77.3 µM (inactive) | 86.3 µM (inactive) | > 100 µM (inactive) | > 100 µM (inactive) | 44.2 µM (inactive) | 59.6 µM (inactive) | > 100 µM (inactive) | 43.7 µM (inactive) | > 10 µM (inactive) | > 100 µM (inactive) |  | 47.3 µM (inactive) | 64.6 µM (inactive) | > 100 µM (inactive) | 31 µM (inactive) | 40.1 µM | 25.5 µM (inactive) |
| CCC(=O)C12OC3OC(C)(C)OC3C1OC(C)(C)O2 (configuration not stated) | > 100 µM (inactive) | > 100 µM (inactive) | > 100 µM (inactive) | > 100 µM (inactive) |  | > 100 µM (inactive) | 9.44 µM (inactive) | > 100 µM (inactive) | > 100 µM (inactive) | > 100 µM (inactive) | > 100 µM (inactive) |  |  | > 100 µM (inactive) | > 100 µM (inactive) |  | > 100 µM (inactive) |  | > 100 µM (inactive) |
| Cc1ccc(N2CCC3(CC2)OCCO3)cc1 | > 100 µM (inactive) | > 100 µM (inactive) | > 100 µM (inactive) | > 100 µM (inactive) | > 100 µM (inactive) | > 100 µM (inactive) | > 100 µM (inactive) | > 100 µM (inactive) | > 100 µM (inactive) | > 100 µM (inactive) | > 100 µM (inactive) | > 100 µM (inactive) |  | > 100 µM (inactive) | > 100 µM (inactive) | > 100 µM (inactive) | > 100 µM (inactive) | > 100 µM | > 100 µM (inactive) |
| CCOP(=O)(OCC)C(c1ccccc1)N(C(=O)NC(F)(F)F)c1cccc(F)c1 (configuration not stated) | > 100 µM (inactive) |  |  | 94.8 µM (inactive) | > 100 µM (inactive) | > 100 µM (inactive) | > 100 µM (inactive) | > 100 µM (inactive) | > 100 µM (inactive) | > 100 µM (inactive) | 81.1 µM (inactive) | > 100 µM (inactive) | > 100 µM (inactive) | > 100 µM (inactive) | > 100 µM (inactive) | 78.3 µM (inactive) | > 100 µM (inactive) | 81.5 µM |  |
| c1ccc([B-]2(c3ccccc3)OCCc3cccc[n+]32)cc1 | 80.7 µM (inactive) | 19.6 µM (inactive) | 82.4 µM (inactive) | 91.8 µM (inactive) | 26.2 µM (inactive) |  | 42.4 µM (inactive) | 48.8 µM (inactive) | 75 µM (inactive) | 51.9 µM (inactive) | 56.2 µM (inactive) | 88.1 µM (inactive) |  | 84.9 µM (inactive) | 67 µM (inactive) | 37.7 µM (inactive) | 36.2 µM (inactive) | 44.5 µM | 75.9 µM (inactive) |
| O=S1(=O)OCCOS(=O)(=O)C1S(=O)(=O)c1ccc2ccccc2c1 | > 100 µM (inactive) |  | > 100 µM (inactive) | > 100 µM (inactive) | > 100 µM (inactive) |  | > 100 µM (inactive) | > 100 µM (inactive) | > 100 µM (inactive) | > 100 µM (inactive) | > 100 µM (inactive) | > 100 µM (inactive) | > 100 µM (inactive) | > 100 µM (inactive) | > 100 µM (inactive) |  | > 100 µM (inactive) | > 100 µM | > 100 µM (inactive) |
| Oc1ccc(-c2nc3cc(F)ccc3s2)cc1 | 27.4 µM (inactive) |  | 13.6 µM (inactive) | 13.2 µM (inactive) | 18.6 µM (inactive) |  | 16.5 µM (inactive) | 32.3 µM (inactive) | 31.6 µM (inactive) | 41.5 µM (inactive) | 10.4 µM (inactive) | 21.8 µM (inactive) | 1.14 µM (inactive) | 18.4 µM (inactive) | 19.6 µM (inactive) |  | 20 µM (inactive) | 23.6 µM | 19.1 µM (inactive) |
